Columns and labels:
VMAT-2 [1] = molecular target: T1, VMAT-2 (Mus musculus, UniProt Q8BRU6); test: [3H]DHTBZ binding in striatal vesicles prepared from treated mice; conditions: methamphetamine 4 x 10 mg/kg s.c., 2-h intervals, 1 and 24 h after treatment
Procedure: Binding of [^3H]DHTBZ was performed essentially as described by Brown et al. (2001a and 2001b) Briefly, 200 μl of the synaptic vesicles preparation (˜6 μg of protein) was incubated in wash buffer in the presence of [^3H]DHTBZ (2 nM final concentration) for 10 min at 25° C. The reaction was terminated by addition of 1 ml cold wash buffer and rapid filtration through Whatman GF/P filters soaked in 0.5% polyethylenimine. Filters were washed three times with ice-cold wash buffer. Nonspecific binding was determined by co incubation with 20 μM TBZ. All protein concentrations were determined by Bio-Rad protein assay (Bio-Rad Inc.)

[2] = molecular target: T2, plasmalemmal DA transporter (DAT) (Rattus norvegicus, UniProt P23977); conditions: rats, cited from earlier work
T2 construct: Uptake of [^3H]DA was determined in striatal synaptosomes; from tissue; host or cells: striatum of male Sprague-Dawley rats (synaptosomes, P2)

VMAT-2 [3] = molecular target: T3, VMAT-2 (Rattus norvegicus, UniProt Q01827); set-up: purified striatal vesicles prepared from treated rats; from tissue; host or cells: striatum of male Sprague-Dawley rats (synaptic vesicles; P2, P3, S3 fractions); conditions: rats, multiple METH; Brown et al., 2000; cited from earlier work
VMAT-2 [4] = molecular target: T1, VMAT-2; test: Vesicular [3H]dopamine uptake in striatal vesicles prepared from treated mice; assay type: in vivo
Procedure: (A. E. Fleckenstein, et al., J. Pharmacol Exp Ther. (1997) 282:834-838). Briefly, fresh tissue was homogenized in ice-cold 0.32 M sucrose. The homogenate was centrifuged (800×g for 12 min; 4° C.), and the supernatant (S1) was carefully removed and centrifuged (22,000×g for 15 min; 4° C.) to obtain the synaptosomal-containing pellet (P2). The resulting P2 were resuspended and homogenized in ice-cold distilled deionized water. Osmolarity was restore by addition 25 mM HEPES and 100 mM potassium tartrate (final concentration; pH 7.5 at 4° C. respectively). […] The resultant S3 removed and MgSO4 added (final concentration of [1 mM] pH 7.5 at 4° C.) and centrifuged at 100,000×g for 45 min. The final P4 were resuspended at 50 mg/ml (original tissue wet weight).

VMAT-2 [5] = test: VMAT-2 immunoreactivity in striatal subcellular fractions of treated mice (Western blot); assay type: in vivo, mouse; conditions: methamphetamine 4 x 10 mg/kg s.c., 1 h
Procedure: Fresh striatal tissue was homogenized in ice-cold 0.32 M sucrose and centrifuged (800×g for 12 min: 4° C.).
VMAT-2 antibody was kindly donated by Dr. John Haycock at the Louisiana State University, New Orleans, La. (Antibody can be purchased from Chemicon, Temecula, Calif. and the reagent # is AB1767). Binding of VMAT-2 antibody was performed using 60 μl of whole synaptosomal, plasmalemmal membrane or vesicle subcellular fractions. Samples were added to 20 μl of loading buffer (final concentration: 2.25% SDS, 18% glycerol, 180 mM Tris Base (pH 6.8), 10% β-mercaptoethanol and bromophenol blue). Approximately 60 μg P2, 40 μg protein P3, and 20 μg protein S3 were loaded per well in a 10% SDS-polyacrylamide gel. Following electrophoresis, samples were transferred to polyvinylidene difluoride hybridization transfer membrane (New England Nuclear (NEN), Boston, Mass.). All subsequent incubation steps were performed at room temperature while shaking. Each membrane was first blocked for 2 h in 100 ml of Tris buffer saline with tween (TBST; 250 mM NaCl, 50 mM tris pH 7.4 and 0.05% tween 20) containing 5% nonfat dry milk. Each membrane was then incubated with anti-VMAT-2 antibody (1:4000 dilution) in 13 ml of TBST with 5% milk for 1 h and then washed 5 times (2×1 min wash: 3×5 min wash) in 70 ml TBST with 5% milk. The membranes then were incubated for 1 h with the goat F (ab′)2 anti-rabbit immunoglobulin antibody (Biosource International, Camarillo, Calif.) at a 1:2000 dilution in TBST with 5% milk. This secondary antibody had been affinity-isolated, preabsorbed with human immunoglobulin, and conjugated with horseradish peroxidase. The membranes were then washed 5 times (2×1 min wash: 3×5 min) with 70 ml TBST, and then developed with Renaissance Western Blot Chemiluminescence's Reagent Pus (NEN, Boston, Mass.), according to manufacturer specification. […] Bands on blots were quantified by densitometry measuring net intensity (the sum of the background-subtracted pixel values in the band area) using Kodak 1D image-analysis software.

VMAT-2 [6] = molecular target: T3, VMAT-2; test: Direct in vitro application of MPD to vesicular [3H]DA uptake; assay type: biochemical; set-up: purified striatal vesicles prepared from treated rats; from tissue; host or cells: striatum of male Sprague-Dawley rats (synaptic vesicles; P2, P3, S3 fractions)
[7] = Locomotor activity and rearing of treated rats; assay type: in vivo, rat; conditions: MPD 5-40 mg/kg s.c.

T1 sequence (Q8BRU6 whole entry): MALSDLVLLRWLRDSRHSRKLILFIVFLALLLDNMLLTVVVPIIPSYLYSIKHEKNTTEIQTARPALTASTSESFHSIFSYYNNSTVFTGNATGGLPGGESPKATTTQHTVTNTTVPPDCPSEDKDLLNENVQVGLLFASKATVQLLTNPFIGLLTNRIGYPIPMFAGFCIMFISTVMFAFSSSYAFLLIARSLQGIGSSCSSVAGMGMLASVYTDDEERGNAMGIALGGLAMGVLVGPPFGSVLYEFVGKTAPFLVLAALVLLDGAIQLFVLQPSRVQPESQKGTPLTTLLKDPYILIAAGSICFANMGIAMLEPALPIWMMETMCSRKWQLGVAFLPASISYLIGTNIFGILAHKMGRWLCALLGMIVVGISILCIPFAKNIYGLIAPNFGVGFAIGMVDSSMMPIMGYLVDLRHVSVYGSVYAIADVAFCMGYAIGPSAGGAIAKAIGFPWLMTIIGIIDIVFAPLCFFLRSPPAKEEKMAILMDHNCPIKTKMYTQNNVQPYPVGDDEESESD
T3 sequence (Q01827 whole entry): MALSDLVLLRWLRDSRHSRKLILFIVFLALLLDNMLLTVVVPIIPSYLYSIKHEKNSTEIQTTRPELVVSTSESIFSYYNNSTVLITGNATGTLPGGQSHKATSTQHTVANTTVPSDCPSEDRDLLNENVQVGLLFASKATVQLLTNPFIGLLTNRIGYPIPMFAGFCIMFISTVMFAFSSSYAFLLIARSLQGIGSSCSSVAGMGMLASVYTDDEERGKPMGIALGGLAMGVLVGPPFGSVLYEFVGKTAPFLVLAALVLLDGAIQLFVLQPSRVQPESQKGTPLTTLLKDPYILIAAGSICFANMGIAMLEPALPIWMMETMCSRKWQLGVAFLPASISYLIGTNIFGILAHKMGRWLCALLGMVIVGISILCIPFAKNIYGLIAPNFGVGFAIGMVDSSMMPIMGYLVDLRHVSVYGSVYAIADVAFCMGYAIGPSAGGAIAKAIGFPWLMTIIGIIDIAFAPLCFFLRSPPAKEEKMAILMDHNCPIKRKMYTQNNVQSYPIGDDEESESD
T2 sequence (P23977 whole entry): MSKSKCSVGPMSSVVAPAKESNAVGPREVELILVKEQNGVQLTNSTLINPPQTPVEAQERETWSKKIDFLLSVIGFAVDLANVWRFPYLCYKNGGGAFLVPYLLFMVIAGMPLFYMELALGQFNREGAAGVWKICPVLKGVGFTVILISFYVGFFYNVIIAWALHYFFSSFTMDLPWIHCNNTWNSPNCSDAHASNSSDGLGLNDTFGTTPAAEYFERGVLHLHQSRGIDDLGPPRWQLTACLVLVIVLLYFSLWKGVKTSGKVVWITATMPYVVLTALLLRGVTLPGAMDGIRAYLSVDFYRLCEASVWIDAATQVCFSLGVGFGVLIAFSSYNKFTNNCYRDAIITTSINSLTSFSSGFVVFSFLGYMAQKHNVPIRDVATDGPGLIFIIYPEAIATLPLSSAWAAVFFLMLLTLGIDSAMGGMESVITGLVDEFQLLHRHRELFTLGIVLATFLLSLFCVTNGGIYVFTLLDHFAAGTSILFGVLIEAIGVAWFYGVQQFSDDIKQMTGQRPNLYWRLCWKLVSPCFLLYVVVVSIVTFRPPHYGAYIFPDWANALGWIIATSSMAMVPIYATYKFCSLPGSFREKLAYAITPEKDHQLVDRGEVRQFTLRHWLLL

Row | Compound | [3H]DHTBZ binding (VMAT-2 [1]) | magnitude of the decrease in plasmalemmal DA uptake ([2]; METH 4 x 10 mg/kg s.c., 2-h intervals, 1 h, Kokoshka 1998, Fleckenstein 1999, Metzger 2000) | recovery of plasmalemmal DA uptake after 24 h ([2]; multiple METH, Kokoshka et al., 1998) | deficit in vesicular DA uptake (VMAT-2 [3]) | vesicular [3H]dopamine uptake (VMAT-2 [4]; methamphetamine 4 x 10 mg/kg s.c., 2-h intervals, 1 and 24 h after treatment) | VMAT-2 immunoreactivity in the membrane-associated fraction (VMAT-2 [5]) | VMAT-2 immunoreactivity in the vesicle preparation (VMAT-2 [5]) | total VMAT-2 immunoreactivity in synaptosomes (VMAT-2 [5]) | IC50 (VMAT-2 [6]; in vitro direct application, n=3) | vesicular [3H]DA uptake on direct application of MPD (VMAT-2 [6]; in vitro, concentrations of 1 nM to 1 μM) | locomotor activity and rearing as compared with controls [7] | vesicular dopamine uptake after a single injection (VMAT-2 [4]; methylphenidate 10 mg/kg s.c. or cocaine 30 mg/kg i.p., vesicles prepared 1 h after treatment)
1 | CN[C@@H](C)Cc1ccccc1 (racemic) [METH, methamphetamine] | rapidly decreased | 70-80% | ≈ 60 % of control values | ≈ 65% | rapidly decreased | increasing | decreased | little effect | – | – | – | –
2 | COC(=O)C(c1ccccc1)C1CCCCN1 (stereo not drawn) [MPD, methylphenidate] | – | – | – | – | – | – | – | – | 19.8 ± 4 µM | without effect | increased | increased

— patent US20060241082A1, “Modulating vesicular monoamine transporter trafficking and function: a novel approach for the treatment of parkinson's disease” (priority 2002, published 2006)
